The values below are quoted from earlier work in patent US12350336B2, “Photo-activatable compound, its preparation and therapeutic use” (City University of Hong Kong, priority 2021, dated 2025).

The conditions of the series: calibration standard value.

As to `CN(C)c1ccc2nc3ccc(=[N+](C)C)cc-3sc2c1` [MB, Methylene blue], the “ΦΔ (1O2 quantum yield) of calibration standard” value is listed as 0.52.
